Measured values from patent US12358921B2, “Antiviral heterocyclic compounds” (priority 2022, dated 2025).

What was measured:
[1] = test system: HUMAN RSV-A (“LONG” STRAIN); assay: RSV-A assay (CPE, ATPlite) in Hep-2 cells; assay type: cell-based; conditions: human respiratory syncytial virus, 120 h, MOI 0.1, 5-day incubation
Procedure, shortened: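 Protection from RSV cytopathic effect read by ATP luminescence (ATPlite) after 5-day culture. Genotype A "Long" virus added at MOI 0.1 to Hep-2 monolayers at 8,000 cells/well, pre-dosed with duplicate 2-fold compound dilutions; controls include infected untreated and uninfected wells. EC50 values binned into ranges.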

hMPV A2 TN/94-49 = assay: HMPV antiviral assay Method 1 (LLC-MK2 cells, ATP-Lite); assay type: cell-based; conditions: hMPV A2 TN/94-49, LLC-MK2 cells
Method: In vitro HMPV antiviral activity was evaluated using the clinical isolate A2 strain TN 94-49 (obtained from Dr. John Williams, Vanderbilt University, Tennessee) and […] cells (ATCC #CCL-7), an immortalized kidney epithelial cell line from Macaca mulatta. Compounds were resuspended in dimethyl sulfoxide (DMSO) at 10 mM, serially diluted and added to a 384-well source plate. Subsequently, the compounds were diluted and transferred onto 384-well assay plates using the Echo-650 automated liquid handling system (Beckman Coulter, Indiana). The test compounds were assessed in duplicate at a top concentration of 2 μM followed by 2.5-fold serial dilutions to give a total of 10 concentration points. DMSO control wells were also included on the assay plates and were either infected or not, acting as positive and negative controls. A2 TN 94-49 virus infections were performed in-suspension with LLC-MK2 cells. The cells were washed twice with PBS and removed from the cell-culture flask with 0.25% trypsin-EDTA (Thermo Fisher Scientific, MA). The trypsin-EDTA was inactivated by resuspending in 2% fetal bovine serum (FBS) and OptiMEM (ThermoFisher Scientific, MA) containing 1% penicillin-streptomycin. Cells were pelleted by centrifuging for 5 minutes at 800 rpm, the supernatant was removed, and cells were re-suspended and washed in PBS plus 100 μg/mL CaCl2). This step was performed twice. Cells were then re-suspended in serum-free (SF)-OptiMEM containing 4 μg/mL TPCK-Trypsin (Sigma Aldrich, MO), 1% penicillin-streptomycin (ThermoFisher Scientific, MA) and 100 μg/mL CaCl2). Cells were counted and seeded at a density of 5,000 cells/well, 12.5 μL/well. Virus infections were done at a multiplicity of infection (MOI) of 0.005 with 12.5 μL added per well. Virus infections were performed in infection media which contained SF-OptiMEM, 100 μg/mL CaCl2) and 1% penicillin-streptomycin. HMPV viral stocks are suspended in infection media+5% glycerol, thus an equal volume of infection media+5% glycerol was added to uninfected wells to equalize the final % glycerol across all wells of the assay plate. The final concentration of TPCK-trypsin was 2 μg/mL. The assay plates were incubated at 37° C., 5% CO2 for 7 days. After 7 days incubation, 12.5 μL of ATP-Lite (PerkinElmer, MA) was added to each well and the raw luminescence values were determined using the Envision 2104 (Perkin Elmer, MA). The average of the raw luminescence values for the cells and virus only positive control wells was subtracted from all conditions tested and the percent cell health was determined by dividing these values by the average of the cells only negative control wells. EC50 values were then calculated by non-linear regression using a four-parameter curve logistic equation. The curve fit model employed was XLFit Dose Response One Site Model 200: y=(A+(B/(1+((x/C)^D)))), where A is the minimum y value, B is the maximum y value, C is the log EC50value, and D is the slope factor. Method 2: In Vitro HMPV Antiviral Activity was Evaluated Using the Clinical Isolate A2 Strain TN 94-49

Compound	EC50 [1] [nM]	EC50 (hMPV A2 TN/94-49) [nM]
COc1cc(C(=O)NC[C@](O)(c2cc3c(c(-c4cc(Cl)c(Cl)cc4Cl)n2)OC[C@]3(C)C(N)=O)C2CC2)cc2cn(C3CC3)nc12 [Example 62]	< 200	> 500
COc1cc(C(=O)NC[C@@](O)(c2ccsc2)c2cc3c(c(-c4cc(Cl)c(F)cc4F)n2)OC[C@]3(C)C(N)=O)cc2cn(C3(F)CC3)nc12 [Example 175]	< 200	< 500
COc1cc(C(=O)NC[C@@](O)(c2ccccc2)c2cc3c(c(-c4cc(Cl)c(F)cc4F)n2)OC[C@]3(C)C(N)=O)cc2cn(C(F)F)nc12 [Example 156]	< 200	< 500
[2H]C([2H])([2H])c1nc2c(OC)cc(C(=O)NC[C@](O)(c3cc4c(c(-c5ccc(F)c(Cl)c5Cl)n3)OC[C@]4(C)C(N)=O)C3CC3)cc2cc1Br [Example 24]	< 200	< 500
[2H]c1c([2H])c([2H])c([C@](O)(CNC(=O)c2cc(OC)c3nn(C4CC4)cc3c2)c2cc3c(c(-c4cc(Cl)c(F)cc4F)n2)OC[C@]3(C)C(N)=O)c([2H])c1[2H] [Example 169]	< 200	< 500
[2H]C([2H])([2H])c1nc2c(OC)cc(C(=O)NC[C@@](O)(c3ccc(F)cc3)c3cc4c(c(-c5cc(Cl)c(F)cc5F)n3)OC[C@]4(C)C(N)=O)cc2s1 [Example 16]	< 200	< 500
COc1cc(C(=O)NC[C@@](O)(c2ccsc2)c2cc3c(c(-c4cc(F)c(F)cc4F)n2)OC[C@]3(C)C(N)=O)cc2cn(C3CC3)nc12 [Example 177]	< 200	< 500
COc1cc(C(=O)NC[C@](O)(c2cc3c(c(-c4ccc5ccsc5c4)n2)OC[C@]3(C)C(N)=O)C2CC2)cc2cn(C3CC3)nc12 [Example 48]	< 200	> 500
C[C@]1(C(N)=O)COc2c1cc([C@@](O)(CNC(=O)c1cc(OC3CC3)c3nn(C4CC4)cc3c1)c1ccccc1)nc2-c1ccc2c(c1Cl)OC(F)(F)O2 [Example 252]	< 200	< 500
[2H]C([2H])([2H])c1nc2ccc(C(=O)NC[C@@](O)(c3ccccc3)c3cc4c(c(-c5cc(Cl)c(F)cc5F)n3)OC[C@]4(C)C(N)=O)cc2o1 [Example 87]	< 200	< 500
COc1cc(C(=O)NC[C@](O)(c2cc3c(c(-c4cc(C(F)(F)F)ccc4C)n2)OC[C@]3(C)C(N)=O)C2CC2)cc2cn(C3CC3)nc12 [Example 53]	< 200	< 500
COc1cc(C(=O)NC[C@@](O)(c2ccc(F)cc2)c2cc3c(c(-c4ccc(F)c(Cl)c4Cl)n2)OC[C@]3(C)C(N)=O)cc2cc(C3CC3)nn12 [Example 45]	< 200	< 500
COc1cc(C(=O)NC[C@](O)(c2cc3c(c(-c4ccc(C)c(C(F)(F)F)c4)n2)OC[C@]3(C)C(N)=O)C2CC2)cc2cn(C3CC3)nc12 [Example 56]	< 200	> 500
COc1cc(C(=O)NC[C@@](O)(c2ccccc2)c2cc3c(c(-c4ccc5c(c4Cl)OC(F)(F)O5)n2)OC[C@]3(C)C(N)=O)cc2cn(C3CC3)nc12 [Example 251]	< 200	< 500
C[C@]1(C(N)=O)COc2c1cc([C@@](O)(CNC(=O)c1cc(Cl)c3nn(C4CC4)cc3c1)C1CC1)nc2-c1ccc2c(c1Cl)OC(F)(F)O2 [Example 35]	< 200	< 500
COc1cc(C(=O)NC[C@@](O)(c2ccccc2)c2cc3c(c(-c4ccc5c(c4Cl)OC(F)(F)O5)n2)OC[C@]3(C)C(N)=O)cc2cn(C3(F)CC3)nc12 [Example 255]	< 200	< 500
[2H]C([2H])([2H])c1nc2c(OC)cc(C(=O)NC[C@@](O)(c3ccc(OC)cc3)c3cc4c(c(-c5cc(Cl)c(F)cc5F)n3)OC[C@]4(C)C(N)=O)cc2s1 [Example 168]	< 200	< 500
[2H]C([2H])([2H])c1cc2cc(C(=O)NC[C@](O)(c3cc4c(c(-c5cc(F)c(F)cc5F)n3)OC[C@]4(C)C(N)=O)C3CC3)cc(OC)c2nc1C([2H])([2H])[2H] [Example 28]	< 200	< 500

Compound	EC50 [1] [nM]	EC50 (hMPV A2 TN/94-49) [nM]
[2H]c1nc2c(OC(F)F)cc(C(=O)NC[C@@](O)(c3ccccc3)c3cc4c(c(-c5cc(Cl)c(F)cc5F)n3)OC[C@]4(C)C(N)=O)cc2cc1C([2H])([2H])[2H] [Example 217]	< 200	< 500
COc1cc(C(=O)NC[C@](O)(c2cc3c(c(-c4cc(Cl)c(C)cc4F)n2)OC[C@]3(C)C(N)=O)C2CC2)cc2cn(C3CC3)nc12 [Example 51]	< 200	> 500
COc1cc(C(=O)NC[C@@](O)(c2ccsc2)c2cc3c(c(-c4cc(Cl)c(F)cc4F)n2)OC[C@]3(C)C(N)=O)cc2cn(C3CC3)nc12 [Example 173]	< 200	< 500
COc1cc(C(=O)NC[C@](O)(c2cc3c(c(-c4cccc(S(F)(F)(F)(F)F)c4)n2)OC[C@]3(C)C(N)=O)C(F)(F)F)cc2cn(C3CC3)nc12 [Example 54]	< 200	> 500
COc1cc(C(=O)NC[C@@](O)(c2ccc(F)cc2)c2cc3c(c(-c4ccc(F)c(Cl)c4Cl)n2)OC[C@]3(C)C(N)=O)cc2cc(Cl)c(C)nc12 [Example 44]	< 200	< 500
COc1cc(C(=O)NC[C@](O)(c2cc3c(c(-c4ccc(F)c(CO)c4F)n2)OC[C@]3(C)C(N)=O)C2CC2)cc2cn(C3CC3)nc12 [Example 72]	< 200	> 500
COc1cc(C(=O)NC[C@](O)(c2cc3c(c(-c4cc(Cl)c(F)cc4F)n2)OC[C@]3(C)C(N)=O)c2cnn[nH]2)cc2cn(C3CC3)nc12 [Example 180]	< 200	> 500
COc1cc(C(=O)NC[C@](O)(c2cc3c(c(-c4cc(Cl)cc(C)c4F)n2)OC[C@]3(C)C(N)=O)C2CC2)cc2cn(C3CC3)nc12 [Example 47]	< 200	> 500
COc1cc(C(=O)NC[C@](O)(c2cc3c(c(-c4cc(Cl)c(F)cc4F)n2)OC[C@]3(C)C(N)=O)c2cc(C)cs2)cc2cn(C3CC3)nc12 [Example 467]	< 200	< 500
COc1cc(C(=O)NC[C@@](O)(c2ccccc2)c2cc3c(c(-c4cc(Cl)c(F)cc4F)n2)OC[C@]3(C)C(N)=O)cc2cc(C)cnc12 [Example 80]	< 200	< 500
COc1cc(C(=O)NC[C@@](O)(c2ccccc2)c2cc3c(c(-c4cccc(Cl)c4Cl)n2)OC[C@]3(C)C(N)=O)cc2cn(C(F)F)nc12 [Example 261]	< 200	< 500
Cc1nc2ccc(C(=O)NC[C@@](O)(c3ccccc3)c3cc4c(c(-c5ccc(F)c(Cl)c5Cl)n3)OC[C@]4(C)C(N)=O)cc2o1 [Example 267]	< 200	< 500
COc1cc(C(=O)NC[C@@](O)(c2ccsc2)c2cc3c(c(-c4cc(F)c(F)cc4F)n2)OC[C@]3(C)C(N)=O)cc2cn(C(F)F)nc12 [Example 178]	< 200	< 500
COc1cc(C(=O)NC[C@@](O)(c2cc3c(c(-c4ccc(F)cc4O)n2)OC[C@]3(C)C(N)=O)C2CC2)cc2cn(C3CC3)nc12 [Example 64]	< 200	> 500
COc1cc(C(=O)NC[C@](O)(c2cc3c(c(-c4ccc(C(F)(F)F)c(C)c4)n2)OC[C@]3(C)C(N)=O)C2CC2)cc2cn(C3CC3)nc12 [Example 55]	< 200	> 500
COc1cc(C(=O)NC[C@@](O)(c2cc3c(c(-c4cc(Cl)c(F)cc4F)n2)OC[C@]3(C)C(N)=O)c2cc(C)cs2)cc2cn(C3CC3)nc12 [Example 466]		> 500
COc1cc(C(=O)NC[C@@](O)(c2ccccc2)c2cc3c(c(-c4cc(Cl)c(F)cc4F)n2)OC[C@]3(C)C(N)=O)cc2oc(C)nc12 [Example 84]		< 500
COc1cc(C(=O)NC[C@@](O)(c2ccccc2)c2cc3c(c(-c4cc(Cl)c(F)cc4F)n2)OC[C@]3(C)C(N)=O)cc2cc(C(F)(F)F)cnc12 [Example 83]		< 500
